According to paper PMC3408453, “A Foldamer-Dendrimer Conjugate Neutralizes Synaptotoxic β-Amyloid Oligomers” (PLoS ONE, 2012):

How the values were obtained:
[1] = target: T1, Aβ oligomers (Homo sapiens, UniProt P05067); test: Transmission electron microscopy of Aβ oligomers with ligand; details: 72 µM Aβ oligomer + 36 µM ligand
T1 construct: a depsipeptide derivative of Aβ(1–42) was utilized; made in house; host or cells: chemical peptide synthesis (no expression host)
Protocol: The concentration-dependent increase of the particle size described above raised the question if this phenomenon was linked to an accelerated fibrillization or to any form of conformational remodeling of the Aβ oligomers. […] The shape of the aggregates was unequivocally different from that of the mature fibrils.
Figure 8 Affinity precipitation as detected by TEM. (A) TEM image of the 72 µM Aβ oligomer. (B) TEM image of the 72 µM Aβ oligomer upon addition of 36 µM 7.
Oligomer solution was placed on formvar-carbon-coated 400-mesh copper grids (Electron Microscopy Sciences, Washington, PA) and stained negatively with uranyl acetate. The aggregates were characterized by TEM on a Philips CM 10 transmission electron microscope (FEI Company, Hillsboro, Oregon, USA) operating at 100 kV. Images were taken with a Megaview II Soft Imaging System, routinely at magnifications of ×46000 and ×64000, and analyzed with an AnalySis® 3.2 software package (Soft Imaging System GmbH, Münster, Germany).

[2] = target: T2, monomeric Aβ (Homo sapiens, UniProt P05067); test: ITC titration with monomeric Aβ sample; type: binding
T2 construct: In this work, a depsipeptide derivative of Aβ(1–42) was utilized; made in house; host or cells: chemical peptide synthesis (no expression host)
T2 sequence (P05067 672-713 limits assumed): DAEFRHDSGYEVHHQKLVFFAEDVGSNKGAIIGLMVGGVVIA

[3] = test system: LTP in mouse hippocampal slices impaired by Aβ(1–42) oligomers; test: Ex vivo hippocampal slice LTP electrophysiology; type: cell-based; details: mean ±SEM
Source text: We investigated whether 7 could protect against the synaptic plasticity damage caused by Aβ(1–42) oligomers by using a hippocampus slice LTP model. LTP, a correlate of learning and memory has been repeatedly shown to be impaired by Aβ(1–42) oligomers. As negative control, substance 11 was applied. The experimenters were blind to the compounds tested.
These observations indicate the significant protective effect of 7 (Figure 12D). To test the effects of valency, LTP experiments were repeated with 8 under the same conditions.
Via standard procedures, 350-µm-thick transverse hippocampal slices were prepared from the brain of 7-months-old mice (CD1, Animal Breeding Facility, University of Szeged) with a McIlwain tissue chopper (Campden Instruments, Loughborough, UK). Slices were incubated in standard artificial cerebrospinal fluid (ACSF) at ambient temperature for 60 min, during constant gassing with 95% O2–5% CO2. The ACSF contained (mM): NaCl, 130; KCl, 3.5; CaCl2, 2; MgCl2, 2; NaH2PO4, 0.96; NaHCO3, 24; and D-glucose, 10 (pH 7.4). Individual slices were transferred to a 3D-MEA chip with 60 tip-shaped and 60-μm-high electrodes spaced at 100 μm (Ayanda Biosystems, S.A., Lausanne, Switzerland). The slice was continuously perfused with oxygenated ACSF (1.5 ml min^−1 at 34 °C) containing 720 nM Aβ(1–42) oligomers and/or 950 nM ligand throughout the recording session. Data were recorded with a standard, commercially available MEA setup (Multi Channel Systems MCS GmbH, Reutlingen, Germany). The Schaffer-collateral was stimulated by injecting a biphasic current waveform (−100/+100 μs) through one selected electrode at 0.033 Hz. Care was taken to choose the stimulating electrode in the same region from one slice to the other. The peak-to-peak amplitudes of fEPSPs at the stratum pyramidale and stratum radiatum of CA1 were analyzed. After a 30-min incubation period, the threshold and the maximum of stimulation intensity for evoke responses was determined. To evoke responses, 30% of the maximal stimulation intensity was used. LTP was induced by applying a theta-burst stimulation (TBS) pattern at the maximal stimulation intensity. The TBS comprised four trains administered at 20-s intervals with 10 bursts given at 5 Hz per train and 4 pulses at 100 Hz per burst. Statistical analysis was carried out by using two-tailed Student's t-test. For representative raw data see Figure S12.

[4] = target: T1, Aβ oligomers; test: Precipitation study at 1 µM Aβ oligomer, supernatant Aβ by ELISA; details: 1 µM Aβ oligomer, 0.2, 0.5 and 1.0 equivalents of ligand, 15000× g, 3 h
Protocol: The extent of precipitation was also tested at an Aβ oligomer concentration of 1 µM. The Aβ oligomer sample was mixed with 0, 0.2, 0.5 and 1.0 equivalents of 7, centrifuged at 15000× g for 3 h and the supernatant was tested for residual Aβ concentration by using a standard ELISA (Figure 11).
Aβ concentrations determined by ELISA in supernatants obtained from samples containing 1 µM Aβ oligomer mixed with 0, 0.2, 0.5 and 1.0 equivalents of 7 and centrifuged at 15000×g (room temperature, 3 h).
1 μM solution of the Aβ oligomer sample was prepared. This solution was divided to 4×15 ml fractions and 7 was added to three samples in 1, 0.5 or 0.2 μM final concentration, respectively. All the four samples were divided into […] (2×5 ml). One fraction from each sample was centrifuged at 15000×g at RT for 3 hours in a Roth MIKRO 200 Microcentrifuge (Carl-Roth GmbH Karlsruhe, Germany) centrifuge. […]
Different amounts of Aβ (0.0001, 0.0003, 0.001, 0.003, 0.01, 0.03, 0.1, 0.3 µg pro well) were coated in the wells (6 parallels for each concentration) of a 96 well plate. […] Without using a stopping reagent, the absorbance at 370 nm was constantly monitored using a FLUOstar OPTIMA Multidetection Microplate Reader (BMG LABTECH, Offenburg, Germany). Data values were read at the saturation point of the signal curves. The supernatants were analysed according to the concentration calibration.

T1 sequence (P05067 672-713 limits assumed): as above

SMILES: N=C(N)NCCC[C@@H](CC(=O)N[C@H]1CCCC[C@@H]1C(=O)N[C@H]1CCCC[C@@H]1C(=O)N[C@@H](CC(=O)O)CC(=O)N[C@H]1CCCC[C@@H]1C(=O)NCC(=O)NCC(=O)N[C@@H](CSC1CC(=O)N(CCC(=O)NCCNC(=O)CCN(CCC(=O)NCCNC(=O)CCN2C(=O)CC(SC[C@H](NC(=O)CNC(=O)CNC(=O)[C@H]3CCCC[C@@H]3NC(=O)C[C@H](CC(=O)O)NC(=O)[C@H]3CCCC[C@@H]3NC(=O)[C@H]3CCCC[C@@H]3NC(=O)C[C@H](CCCNC(=N)N)NC(=O)[C@H]3CCCC[C@@H]3N)C(N)=O)C2=O)CCN(CCC(=O)NCCNC(=O)CCN2C(=O)CC(SC[C@H](NC(=O)CNC(=O)CNC(=O)[C@H]3CCCC[C@@H]3NC(=O)C[C@H](CC(=O)O)NC(=O)[C@H]3CCCC[C@@H]3NC(=O)[C@H]3CCCC[C@@H]3NC(=O)C[C@H](CCCNC(=N)N)NC(=O)[C@H]3CCCC[C@@H]3N)C(N)=O)C2=O)CCC(=O)NCCNC(=O)CCN2C(=O)CC(SC[C@H](NC(=O)CNC(=O)CNC(=O)[C@H]3CCCC[C@@H]3NC(=O)C[C@H](CC(=O)O)NC(=O)[C@H]3CCCC[C@@H]3NC(=O)[C@H]3CCCC[C@@H]3NC(=O)C[C@H](CCCNC(=N)N)NC(=O)[C@H]3CCCC[C@@H]3N)C(N)=O)C2=O)C1=O)C(N)=O)NC(=O)[C@H]1CCCC[C@@H]1N (some centres unmarked) [Compound 7]
- TEM: effect on Aβ oligomer particle morphology [1]: caused association of the spherical oligomers a few nm in size into bundles of aggregates in the μm range
- Binding in ITC titration with monomeric Aβ sample [2]: did not exhibit submicromolar binding
- LTP (potentiation) with Aβ(1–42) oligomers and ligand together ([3]; 720 nM Aβ(1–42) oligomers + 950 nM ligand, 180 min after LTP induction): 195±5%
- LTP (potentiation) with ligand alone ([3]; 950 nM ligand, no Aβ oligomers): 184±16%
- Loss of soluble Aβ after centrifugation (supernatant ELISA) [4]: no significant loss of soluble material
